The results in this text go back to ChEMBL document CHEMBL1201862, “PubChem BioAssay data set” (2004).

SMILES strings stand for the structures. Activity calls are given as the source filed them.

Data set [1] can be described thus: Luminescence Cell-Based Dose Response HTS to Identify Activators of Luciferase Translation or Activity in H4 […] Cells. [Related pubchem assays: 1829 (Project Summary), 1814 (Primary HTS)]. It is filed as functional.
Data set [2] concerns H4. Kind of data set: Luminescence Cell-Based Dose Response HTS to Identify Activators of 5'UTR Stem-Loop Driven Prion Protein mRNA Translation in H4 Neuroglioblastoma Cells. [Related pubchem assays: 1829 (Project Summary), 1814 (Primary HTS)]. It is filed as functional. The following applies: Homo sapiens.
Data set [3] has as its target Cytochrome P450 2C19 (Homo sapiens, UniProt P33261). As to the kind of experiment: Cytochrome panel assay with activity outcomes. Panel member name: p450-cyp2c19 Compounds with AC50 equal or less than 10 uM are considered active. Type of data set: functional.
The target of data set [4] is Cytochrome P450 3A4 (Homo sapiens, UniProt P08684).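 Also: CYP3A4 tested as one member of a cytochrome P450 panel screen.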
Chain of Cytochrome P450 3A4 (P08684 whole entry): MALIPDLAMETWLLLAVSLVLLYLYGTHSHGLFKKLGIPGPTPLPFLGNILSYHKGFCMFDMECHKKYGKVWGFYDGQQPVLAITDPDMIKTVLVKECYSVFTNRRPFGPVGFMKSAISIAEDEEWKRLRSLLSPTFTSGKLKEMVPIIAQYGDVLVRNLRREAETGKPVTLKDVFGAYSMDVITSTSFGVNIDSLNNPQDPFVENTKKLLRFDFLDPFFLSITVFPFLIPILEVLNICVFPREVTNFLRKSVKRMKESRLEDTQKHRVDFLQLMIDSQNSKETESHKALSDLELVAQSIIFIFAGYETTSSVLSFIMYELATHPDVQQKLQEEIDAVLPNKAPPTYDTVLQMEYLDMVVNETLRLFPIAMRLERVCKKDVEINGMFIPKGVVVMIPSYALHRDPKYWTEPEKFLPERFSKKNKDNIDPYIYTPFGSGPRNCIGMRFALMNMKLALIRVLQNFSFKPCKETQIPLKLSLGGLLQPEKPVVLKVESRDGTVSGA
Data set [5] has as its target T1, Cytochrome P450 1A2 (Homo sapiens, UniProt P05177).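 Also: PubChem cytochrome P450 panel assay, CYP1A2 panel member.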
T1 sequence (P05177 whole entry): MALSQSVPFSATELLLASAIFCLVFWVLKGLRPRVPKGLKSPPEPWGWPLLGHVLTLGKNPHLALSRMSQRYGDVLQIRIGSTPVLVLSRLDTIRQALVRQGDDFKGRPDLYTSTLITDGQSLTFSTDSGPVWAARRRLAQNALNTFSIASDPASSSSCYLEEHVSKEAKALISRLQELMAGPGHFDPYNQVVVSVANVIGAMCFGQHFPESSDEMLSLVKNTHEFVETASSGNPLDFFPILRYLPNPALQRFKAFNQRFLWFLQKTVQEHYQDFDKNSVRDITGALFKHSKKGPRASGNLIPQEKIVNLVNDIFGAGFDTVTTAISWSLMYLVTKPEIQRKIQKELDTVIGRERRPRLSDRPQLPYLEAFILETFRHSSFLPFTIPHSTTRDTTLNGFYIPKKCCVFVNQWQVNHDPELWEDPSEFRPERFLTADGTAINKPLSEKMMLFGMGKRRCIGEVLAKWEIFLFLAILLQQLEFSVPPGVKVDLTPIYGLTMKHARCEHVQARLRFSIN

Data set [6] can be described thus: Trypanosoma cruzi growth suppression in host cells – NIH3T3 host cells, beta-gal luminescence, confirmation (AID 2044).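 Also: intracellular parasites grown in NIH/3T3 mouse fibroblasts as host cells; luminescent beta-galactosidase reporter signal from transgenic T. cruzi replicating inside host cells; inhibitors lower the luminescence signal.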 Type of data set: functional, cell-based.
Data set [7] is described as follows: NIH3T3 cell viability loss – ATP luminescence, mouse fibroblasts, counter-screen, dose response (AID 2010).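 Also: cells exposed to compound for about 90 hours before reading.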 Type of data set: functional, cell-based. Background: A counterscreen serves to expose hits that act by an unwanted route or on another target.
Data set [8] deals with T2, Corticotropin-releasing factor receptor 2/Corticotropin-releasing factor-binding protein (Homo sapiens, UniProt P24387+Q13324).
T2 sequence (Q13324 whole entry): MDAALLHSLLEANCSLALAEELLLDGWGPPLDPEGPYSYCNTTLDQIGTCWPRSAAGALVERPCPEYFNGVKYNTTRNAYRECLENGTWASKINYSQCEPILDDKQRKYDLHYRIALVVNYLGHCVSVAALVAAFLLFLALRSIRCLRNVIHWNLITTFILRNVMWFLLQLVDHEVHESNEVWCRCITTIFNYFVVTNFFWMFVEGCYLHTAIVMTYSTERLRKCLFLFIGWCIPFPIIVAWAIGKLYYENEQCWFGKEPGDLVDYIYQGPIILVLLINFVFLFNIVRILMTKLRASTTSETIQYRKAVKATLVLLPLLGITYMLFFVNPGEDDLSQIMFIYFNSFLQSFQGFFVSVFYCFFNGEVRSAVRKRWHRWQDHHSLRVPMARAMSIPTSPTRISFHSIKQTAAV
T2 sequence (P24387 whole entry): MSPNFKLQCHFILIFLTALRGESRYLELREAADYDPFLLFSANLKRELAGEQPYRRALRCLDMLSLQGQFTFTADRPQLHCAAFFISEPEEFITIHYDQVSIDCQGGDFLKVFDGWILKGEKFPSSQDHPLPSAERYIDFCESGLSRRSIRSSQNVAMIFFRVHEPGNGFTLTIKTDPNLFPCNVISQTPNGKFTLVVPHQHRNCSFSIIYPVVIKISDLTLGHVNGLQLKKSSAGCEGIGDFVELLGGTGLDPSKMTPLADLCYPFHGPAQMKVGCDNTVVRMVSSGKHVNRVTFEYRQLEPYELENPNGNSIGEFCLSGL
As to the kind of experiment: activators of CRF receptor 2 with binding protein – uHTS hits, confirmation (AID 602473). It is filed as functional. To be noted: read-out: EC50_Mean.

Chain of Cytochrome P450 2C19 (P33261 whole entry): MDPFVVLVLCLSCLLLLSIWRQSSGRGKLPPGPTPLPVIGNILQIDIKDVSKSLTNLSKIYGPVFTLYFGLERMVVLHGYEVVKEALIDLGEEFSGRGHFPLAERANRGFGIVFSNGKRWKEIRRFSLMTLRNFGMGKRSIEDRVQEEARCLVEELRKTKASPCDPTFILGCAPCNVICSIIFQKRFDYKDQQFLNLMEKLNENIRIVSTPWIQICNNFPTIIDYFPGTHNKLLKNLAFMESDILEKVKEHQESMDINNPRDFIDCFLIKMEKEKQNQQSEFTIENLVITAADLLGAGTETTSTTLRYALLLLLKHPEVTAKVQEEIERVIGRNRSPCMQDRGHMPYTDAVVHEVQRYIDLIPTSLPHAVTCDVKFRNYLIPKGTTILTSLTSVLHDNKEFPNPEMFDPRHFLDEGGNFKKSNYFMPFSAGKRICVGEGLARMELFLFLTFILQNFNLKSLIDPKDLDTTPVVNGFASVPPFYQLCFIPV

`CCOc1ccc(N2C(=O)C(Cl)=C(Nc3ccccc3O)C2=O)cc1`: the figures for the EC50 in data set [1] and in data set [2] were > 120 µM (not active) and 0.107 µM (active), respectively. By AC50 is commonly meant the midpoint of the concentration-response curve, whichever way the signal moves. On to `CCCc1ccc(-c2cc(C(=O)NN3CCOCC3)c3ccccc3n2)cc1`, for which the AC50 in data set [3] (read-out: AC50) is 15.8 µM (inconclusive); in data set [4] it was 12.6 µM (inconclusive). Consider `CC1CCC(NC(=O)CC(C)(C)Cc2nc(O)c3ccccc3n2)CC1` (stereo not given), for which, in data set [5], the AC50 was 22.4 µM (inconclusive). Turning to `O=C1CCCC=C1[C@@H](O)COCc1ccccc1`, the AC50 in data set [4] was 3.16 µM (inconclusive). As to `CN(Cc1ccco1)c1ncnc2ccc(-c3ccccc3C#N)cc12`, in data set [4], the AC50 was 31.6 µM (inconclusive). For the molecule `Cc1ccc(C)c(NC(=N)Nc2nc(C)cc(C)n2)c1`, the EC50 in data set [6] was 1.2 µM (active); in data set [7], > 60 µM (inconclusive). Moreover, the AC50 result was “inconclusive” in data set [3] and 14.1 µM (inconclusive) in data set [5]. On to `Cc1cc(C)c(S(=O)(=O)N2CCN(c3ccc([N+](=O)[O-])c(NCC4CCCO4)c3)CC2)c(C)c1` (stereo not given), for which the AC50 in data set [4] was 3.55 µM (inconclusive).

With `COc1ccc(Oc2ncc3nc(CCc4ccccc4)c(=O)n(CCC#N)c3n2)cc1`, in data set [5], the AC50 is 6.31 µM (inconclusive).

With `Cn1c(=O)c(-c2ccccc2)nc2cncnc21`, the AC50 in data set [4] was 12.6 µM (inconclusive).

Take `Cc1noc(C)c1-c1cncnc1NCc1ccccc1`: in data set [5], the AC50 is 25.1 µM (inconclusive).

As for `CNC(=O)[C@@H]1O[C@@H](n2cnc3c(NCc4ccc(N)cc4)ncnc32)[C@@H](O)[C@H]1O`, the half-maximal activity concentration (AC50) in data set [4] is 25.1 µM (inconclusive). On to `CN1CCCC2(CCN(C(=O)c3cc(C(F)(F)F)cc(C(F)(F)F)c3)CC2)C1`, for which the AC50 in data set [3] (read-out: AC50) and in data set [4] was 25.1 µM (inconclusive) in each case. Consider `CC[C@]1(O)C[C@@H]2CN(CCc3c([nH]c4ccccc34)[C@](C(=O)OC)(c3cc4c(cc3OC)N(C=O)[C@H]3[C@@](O)(C(=O)OC)[C@H](C(=O)OC)[C@@]5(CC)C=CCN6CC[C@]43[C@H]65)C2)C1`, for which the AC50 in data set [4] is 25.1 µM (inconclusive). For `O=C(COC(=O)[C@H](Cc1ccccc1)NC(=O)c1ccco1)NCc1ccccc1`, in data set [8], the EC50 is 10.4 µM (active). For `Cc1cccc2nc(C(F)(F)F)nc(=O)n12`, the concentration at half-maximal activity (AC50) is 28.2 µM (inconclusive) in data set [3] (read-out: AC50) and 0.0316 µM (inconclusive) in data set [5]. On to `O=C(Nc1ccc(Cl)cc1)OCCn1nnnc1C(c1ccccc1Cl)N1CCOCC1` (stereo not given), for which the AC50 in data set [4] is 0.891 µM (inconclusive).

Regarding `CC(C)(C)C(=O)N(CCN(C(=O)C(C)(C)C)c1ccccc1)c1ccccc1`, the values for the AC50 in data set [3] (read-out: AC50) and in data set [4] were 8.91 µM (inconclusive) and 7.08 µM (inconclusive), respectively. Regarding `O=C(c1cnccn1)N1CCC2(CC1)CN(c1cccc(-c3ccccc3)c1)C2`, the AC50 in data set [5] was 15.8 µM (inconclusive); in data set [4] it was 39.8 µM (inconclusive). On to `CC(=O)NCCNc1nc(-c2ccccc2C(F)(F)F)nc2ccccc12`, for which the AC50 in data set [4] was 12.6 µM (inconclusive).

For the molecule `COC(=O)[C@@]1(Cc2ccc(OC)cc2)[C@H]2c3cc(C(=O)N4CCCC4)n(CCc4c[nH]c5ccc(OC)cc45)c3C[C@H]2CN1C(=O)c1ccccc1`, the AC50 in data set [5] was 10 µM (inconclusive).

Turning to `CC(c1ccccc1C(O)(c1ccccc1)c1ccccc1)N(C)C` (stereo not given), in data set [8], the EC50 is 4.62 µM (active). Consider `Cc1noc(C)c1C(=O)N1CCC2(CCCN(C(=O)Nc3cccc(F)c3)C2)CC1`, for which the AC50 in data set [5] and in data set [4] was 15.8 µM (inconclusive) each time.

In the case of `COCCn1c(=O)c(-c2cccc(F)c2)nc2cncnc21`, the results for the concentration at half-maximal activity (AC50) in data set [3] (read-out: AC50) and in data set [4] were 39.8 µM (inconclusive) and 15.8 µM (inconclusive), respectively. `N=C(NOC(=O)/C=C/c1ccccc1Cl)c1cccnc1`: the EC50 in data set [2] was 22.8 µM (active). Consider `COc1ccccc1CNc1ncncc1-c1cccc(C#N)c1`, for which the AC50 in data set [4] is 0.316 µM (inconclusive).

On to `CC[C@](N)(CCC(=O)O)C(=O)O`, for which, in data set [5], the AC50 was 20 µM (inconclusive). Turning to `OC(Cc1nc2ccccc2[nH]1)c1ccccc1Cl` (stereo not given), the AC50 in data set [5] is 25.1 µM (inconclusive). The same measure, in the same setting: for `CN1C[C@@H](CS(=O)(=O)N(C)C)C[C@H]2c3cccc4c3c(cn4C)C[C@@H]21` the value was 25.1 µM (inconclusive). With `COc1ccc(NC(=O)N2CC3(CCN(C(=O)c4ccc(OC)cc4)CC3)C2)cc1`, the AC50 in data set [4] is 25.1 µM (inconclusive). As to `Cc1c(NC(=O)NC(C)N2C(=O)C3C4C=CC(C4)C3C2=O)c(=O)n(-c2ccccc2)n1C` (stereo not given), the AC50 in data set [4] is 25.1 µM (inconclusive).

`O=C(c1cccc(F)c1)N1CCC2(CCCN(c3ccc(-c4ccccc4)cc3)C2)CC1`: the AC50 is 20 µM (inconclusive) in data set [3] (read-out: AC50) and 12.6 µM (inconclusive) in data set [4]. For the molecule `CC(=O)c1cc(CC=C(C)C)c(O)cc1O`, the AC50 in data set [4] is 1.41 µM (inconclusive). `O=C(Nc1cccn(Cc2c(Cl)cccc2Cl)c1=O)c1ccc(Cl)cc1Cl`: the AC50 in data set [5] was 2.82 µM (inconclusive); in data set [4], 14.1 µM (inconclusive). On to `CC(C)(C)c1nc(SCC(=O)Nc2ccc3c(c2)OCCO3)c2ccccc2n1`, for which the AC50 in data set [5] is 10 µM (inconclusive). Turning to `O=C1Nc2ccccc2C2=N[C@@H](CN3CCN(c4ccccc4)CC3)CN12`, in data set [5], the AC50 is 20 µM (inconclusive).

For the molecule `COc1ccc(-c2nc3cnc(OC)nc3n(-c3ccc(OC)cc3)c2=O)cc1`, the AC50 in data set [5] was 0.316 µM (inconclusive); in data set [4], 15.8 µM (inconclusive). Turning to `COc1cc(OC)c(C2C(C(=O)O)c3ccccc3C(=O)N2C)cc1OC` (stereo not given), the AC50 in data set [5] was 31.6 µM (inconclusive); in data set [4], 0.355 µM (inconclusive). With `Nc1c2c(=O)oc(-c3ccccc3)cc2nn1-c1ccccc1`, the AC50 in data set [4] is 25.1 µM (inconclusive). In the case of `O=C(NCc1cccc(Cl)c1)c1cccc(S(=O)(=O)N2CCCC2)c1`, in data set [8], the EC50 was > 53 µM (inactive). In the case of `Cc1nc2c(c(=O)c3ccccc3n2C)c(=O)n1C1CCCCCC1`, in data set [8], the EC50 is 9.6 µM (active). For `O=C(O)CN1C(=O)CN=C(c2ccccn2)c2cc(Cl)ccc21`, in data set [5], the AC50 is 1.26 µM (inconclusive). As for `Cc1cccc(-n2nnc3cnn(C)c3c2=O)c1`, the AC50 in data set [5] is 12.6 µM (inconclusive); in data set [4], 31.6 µM (inconclusive). `O=C1[C@H]2[C@H]3[C@H](O)[C@H](O)C/C(=N/OC[C@@H](O)COCc4ccco4)[C@@H]3CC[C@@H]2C(=O)N1C1CCCCC1`: the AC50 in data set [4] is 5.01 µM (inconclusive).

Consider `CCOC(=O)/C(=C\c1ccc(N2CCC(c3ccccc3)=N2)cc1)C(C)=O`, for which the EC50 in data set [8] is 7.05 µM (active). As to `COc1ncc2ncc(=O)n(CCC#N)c2n1`, the AC50 in data set [5] is 20 µM (inconclusive). As for `O=C(NC(C(=O)N/N=C/c1cccnc1)c1nnc(O)c2ccccc12)c1ccccc1` (stereo not given), the EC50 in data set [8] was 7.94 µM (active).

As to `COc1ccc(NC(=O)c2ccc(-c3ccc(-c4noc(C)n4)cc3C)cc2)cc1OCCN(C)C`, the results for the AC50 in data set [5] and in data set [4] were 39.8 µM (inconclusive) and 15.8 µM (inconclusive), respectively. Turning to `CC(C)N1C(=O)/C(=C\c2c[nH]c3ccccc23)S/C1=N\c1ccccc1`, the figures for the AC50 in data set [3] (read-out: AC50), in data set [5] and in data set [4] were 2 µM (inconclusive), 4.47 µM (inconclusive) and 22.4 µM (inconclusive), respectively. Turning to `S=C=Nc1cccc(C2(N3CCCCC3)CCCCC2)c1`, the AC50 in data set [5] was 31.6 µM (inconclusive).

As for `O=c1oc2ccccc2c(O)c1Cc1c(O)c2ccccc2oc1=O` [DICUMAROL], the AC50 is 10 µM (inconclusive) in data set [3] (read-out: AC50) and 12.6 µM (inconclusive) in data set [5].
